Each structure is given as a SMILES string.

One assay concerns the target D816V Kit (Homo sapiens (Human), UniProt P10721, D816V). Briefly: Kit D816V assay at Km (Caliper electrophoretic mobility shift). The note with it: for IC50: D816V Kit 0.5 nM, 15 uM ATP (Km), 1 uM Srctide, 25 C, 90 minutes, read-out: INH-KITD816V ENZ-KM IC50 (nM) (Num). In kind it is biochemical. The gist of the method:
(§1)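 Read-out is the ratio of phosphorylated to unphosphorylated fluorescent peptide, resolved by mobility shift on a Caliper EZ Reader 2.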

The next assay addresses wild type Kit (Homo sapiens (Human), UniProt P10721). Briefly: Kit wild type assay at Km (Caliper electrophoretic mobility shift). In kind it is biochemical. The note with it: wild type Kit 2 nM, 400 uM ATP (Km), 1 uM Srctide, 25 C, 90 minutes; read-out: INH-KITWT ENZ-KM IC50 (nM) (Num). The procedure, abridged:
as §1

In the next assay the test system is HMC1.2 cells. Briefly: HMC1.2 Proliferation Assay (CellTiter-Glo). To be noted: 72 h, read-out: HMC1.2 Proliferation IC50. In general terms: ATP-based viability assays read luminescence as a measure of living cells.
In assay [1] the target is Kit D816V kinase activity (Kit autophosphorylation at tyrosine 719) (Homo sapiens (Human), UniProt P10721, D816V/V560G). Briefly: HMC1.2 Autophosphorylation Assay (AlphaLISA phospho-Y719 c-Kit).
Sequence of Kit D816V kinase activity (Kit autophosphorylation at tyrosine 719) (P10721 26-976 V560G/D816V): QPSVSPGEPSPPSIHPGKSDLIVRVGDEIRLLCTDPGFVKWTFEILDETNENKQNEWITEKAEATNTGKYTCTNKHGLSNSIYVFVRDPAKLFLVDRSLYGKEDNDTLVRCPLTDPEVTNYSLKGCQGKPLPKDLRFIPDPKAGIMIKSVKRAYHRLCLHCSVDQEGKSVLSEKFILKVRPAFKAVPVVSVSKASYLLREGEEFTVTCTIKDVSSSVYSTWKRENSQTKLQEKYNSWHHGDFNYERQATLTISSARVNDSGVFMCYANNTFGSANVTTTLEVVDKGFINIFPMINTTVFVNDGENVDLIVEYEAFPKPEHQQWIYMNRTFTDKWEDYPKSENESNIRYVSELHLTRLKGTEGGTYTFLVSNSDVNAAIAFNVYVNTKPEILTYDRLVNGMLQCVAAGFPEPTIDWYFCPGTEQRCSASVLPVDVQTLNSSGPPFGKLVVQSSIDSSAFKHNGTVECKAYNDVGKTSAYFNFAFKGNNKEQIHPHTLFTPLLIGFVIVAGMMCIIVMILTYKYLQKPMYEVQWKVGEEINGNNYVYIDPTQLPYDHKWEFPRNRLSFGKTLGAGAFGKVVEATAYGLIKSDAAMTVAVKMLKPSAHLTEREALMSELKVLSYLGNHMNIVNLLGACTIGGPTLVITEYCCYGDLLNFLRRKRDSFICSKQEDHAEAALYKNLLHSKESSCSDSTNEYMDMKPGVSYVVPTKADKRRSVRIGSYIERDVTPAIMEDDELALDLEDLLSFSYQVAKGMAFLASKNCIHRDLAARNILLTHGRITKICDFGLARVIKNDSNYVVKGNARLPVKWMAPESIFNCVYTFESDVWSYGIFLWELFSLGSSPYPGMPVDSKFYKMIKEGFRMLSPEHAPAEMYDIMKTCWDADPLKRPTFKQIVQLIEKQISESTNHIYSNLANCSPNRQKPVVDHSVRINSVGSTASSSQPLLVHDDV
Method: 10,000 HMC1.2 cells were incubated in 22 ul culture media (phenol-red free IMDM, no serum) in each well of a 384-well plate and serum starved overnight in a tissue culture incubator (5% CO2, 37° C.). […] After 90 minutes, 6 ul of 5× AlphaLISA Lysis Buffer (Perkin Elmer) supplemented with a protease and phosphatase inhibitor cocktail (Cell Signaling Technologies) was added to each well and shaken at 450 rpm for 15 minutes at 4° C. […] 10 ul of 100 ug/ml streptavidin donor beads (Perkin Elmer) were added to each well, blocked from light with aluminum adhesive and shaken at 300 rpm at room temperature for 2 hours. Fluorescence signal was obtained on Envision (Perkin Elmer) by AlphaScreen 384 well HTS protocol.

Sequence of wild type Kit (P10721 26-976): as the sequence (P10721 26-976 V560G/D816V) above, with G535V, V791D counted along it
Sequence of D816V Kit (P10721 26-976 D816V): as the sequence (P10721 26-976 V560G/D816V) above, with G535V counted along it
Method for HMC1.2 cells: 1000 HMC1.2 cells were incubated in 22 ul culture media (IMDM, 10% calf serum with Iron) in each well of a 384-well plate overnight in a tissue culture incubator (5% CO2, 37° C.). […] After 3 days incubation in tissue culture incubator, 25 ul CellTiter-Glo (Promega) solution was added to each well for ATP/cell viability measurement.
In addition, these compounds were assayed for their ability to inhibit the dependence of these cells on Kit kinase activity by disrupting their growth and proliferation.

Turning to `COc1cc2ncnc(N3CCN(c4ncc(Cc5ccccc5)c(N)n4)CC3)c2cc1OCC1CCN(C)CC1` [Compound 125], the IC50 at D816V Kit was under 1 nM; at wild type Kit, under 10 nM; in the assay with HMC1.2 cells it was 100 to 1000 nM; in assay [1] it was under 10 nM.

As for `COc1cc2c(N3CCN(c4ncc(Nc5ccc(C)cc5)cn4)CC3)ncnc2cc1OCCCN1CCCCC1` [Compound 137], the IC50 at D816V Kit is 1.01 to 10 nM; on wild type Kit, 11 to 100 nM; with HMC1.2 cells it was 1000 to 10000 nM; in assay [1] it was 100 to 1000 nM.

Take `COc1cc2ncnc(N3CCN(c4ncc(Cc5ccccc5)cn4)CC3)c2cc1OCC1CNC1` [Compound 79]: the IC50 at D816V Kit fell in the range of 1.01 to 10 nM; on wild type Kit, 11 to 100 nM; with HMC1.2 cells, 1000 to 10000 nM; in assay [1], 10 to 100 nM.

Take `COc1cc2ncnc(N3CCN(c4ncc(Cc5ccccc5)cn4)C(C)C3)c2cc1OC` (stereo not drawn) [Compound 23]: the IC50 at D816V Kit is 1.01 to 10 nM; at wild type Kit, 11 to 100 nM; with HMC1.2 cells, 1000 to 10000 nM; in assay [1], 100 to 1000 nM. Moreover, the “times more potent against the D816V mutant than against the wild-type Kit” value on D816V Kit (D816V Kit versus wild-type Kit, enzyme assays at Km) is “less than 5 times”.

As for `COc1cc2c(N3CCN(c4ncc(Cc5ccccc5)cn4)CC3)ncnc2cc1OCCCN1CCCCC1` [Compound 123], the IC50 was in the range of 10 to 100 nM at D816V Kit, 100 to 1000 nM on wild type Kit, 1000 to 10000 nM with HMC1.2 cells and 1000 to 10000 nM in assay [1].

Regarding `COc1cc2ncnc(N3CCN(c4ncc(Cc5ccccc5)c(=O)[nH]4)CC3)c2cc1OCC1CNCCO1` (stereo not drawn) [Compound 119], the IC50 at D816V Kit is under 1 nM; at wild type Kit, under 10 nM; in the assay on HMC1.2 cells it was over 10000 nM; in assay [1], 1000 to 10000 nM.

As to `COc1cc2ncnc(N3CCN(c4ncc(COc5ccccc5)cn4)CC3)c2cc1OC` [Compound 36], the IC50 was in the range of 1.01 to 10 nM on D816V Kit, 11 to 100 nM at wild type Kit, 1000 to 10000 nM in the assay on HMC1.2 cells and 100 to 1000 nM in assay [1].

In the case of `COc1cc2c(N3CCN(c4ncc(Cc5ccccc5)cn4)CC3)ncnc2cc1OCC(O)CO` (stereo not drawn) [Compound 85], the IC50 on D816V Kit was 1.01 to 10 nM; on wild type Kit it was 11 to 100 nM; with HMC1.2 cells, 1000 to 10000 nM; in assay [1] it was 100 to 1000 nM.

The record behind these values is patent US9994552B2, “Compositions useful for treating disorders related to kit” (BLUEPRINT MEDICINES CORPORATION, priority 2013, dated 2018).
